# Where two headings read alike, the source gives them in different places. Ends that are not written are not given here.
# B1: Rat CRF (corticotropin-releasing factor), Sigma catalogue no. C-3042 (peptide)
# peptide: SQEPPISLDLTFHLLREVLEMTKADQLAQQAHNNRKLLDIA-NH2
# B2: Urotensin 1 (teleost fish, Sigma cat. no. U-7253) (peptide)
# peptide: NDDPPISIDLTFHLLRNMIEMARIENEREQAGLNRKYLDEV-NH2
# B3: Urocortin (rat, Sigma Cat. no. U-6631) (peptide)
# peptide: DDPPLSIDLTFHLLRTLLELARTQSQRERAEQNRIIFDSV-NH2
# What was measured:
# [1] = tested on: hippocampal neurones; test: Amyloid-β peptide (25-35) toxicity, survival by counting viable neurons (FIGS. 8, 9); type: cell-based; details: for neuronal death: 10-20 μM
# Experimental: In order to test whether CRF receptor agonists protect neurones from death caused by Aβ, the following experiment was conducted (FIGS. 8 and 9). Hippocampal neurons from embryonic day 18 rat were cultured in serum-free medium (neurobasal/B27) for 9 days. The culture methods are described on page 48 of S. D. Skaper et al., J. Neurochem., 2001, 76, 47-55. Cells were then treated with amyloid-β peptide (fragment 25-35) (Sigma, cat. no. A-4559, sequence Gly-Ser-Asn-Lys-Gly-Ala-Ile-Ile-Gly-Leu-Met) at 10 μM plus the indicated CRF receptor agonist at the indicated concentration, in the same culture medium. […] Cell survival was assessed after 3 days, by fixing the cultures and counting microscopically viable neurons. Values are expressed relative to numbers of surviving neurons in untreated cultures (=100).
# [2] = tested on: cerebellar granule neurones; type: cell-based, rat; details: 48 h, MTT, sham-treated = 100%
# Experimental: Cerebellar granule neurones were used in the examples to test neuroprotection by CRF receptor agonists. Cerebellar granule neurones (CGNs) undergo apoptosis during the first few weeks of postnatal life, and in culture require mildly depolarising concentrations of KCl (25 mM) for their survival and maturation (S. R: D'Mello et al., Proc. Natl. Acad. Sci. USA 90, 10989-10993, 1993). The growth signal provided by KCl depends upon activation of the phosphatidylinositol 3-kinase (PI 3-kinase) pathway, and pharmacological inhibition of PI 3-kinase in differentiated granule neurones leads to apoptotic death in the CGNs (T. M. Miller et al., J. Biol. Chem., 272, 9847-9853, 1997). Thus, cultured CGNs represent a suitable model to study mechanisms of programmed cell death, and to identify putative neuroprotective signalling pathways.
# Assay 1: Cerebellar granule neurones prepared from postnatal day 8 Sprague Dawley rat pups were used for experiments on death induced by inhibition of PI 3-kinase. General culture methods are described in S. D. Skaper et al. in Methods in Neurosciences, Vol. 2 (Conn P. M., ed), pp. 17-33. Academic Press, San Diego, 1990. At 8-9 days in vitro (DIV), granule neurone cultures were shifted to phenol red-free Dulbecco's modified Eagle's medium lacking serum, and containing 0.05% bovine serum albumin and 25 mM KCl. Death was induced by addition of the PI 3-kinase inhibitor LY 294002 (75 μM). CRF or CRF agonist peptides (urotensin 1, urocortin, sauvagine) were added at different concentrations (from 0.3nM to 300 nM or 1000 nM) together with LY 294002. Forty-eight hours later neuronal survival was quantified by a colorimetric reaction MTT. Absolute MTT values obtained were normalised for small differences in interexperiment plating densities by scaling to the mean of sham-treated sister cultures (defined as 100%).
# Results are shown in Table 1 below and in graphical form in FIG. 1, which show the percentage mean neuronal survival (and standard deviation), when in the presence of the relevant CRF receptor agonists and LY 294002, as a function of agonist concentration. […] Urotensin 1, urocortin and sauvagine were also neuroprotective albeit with lower potency (<1 μM).
# [3] = tested on: cerebellar granule neurones; test: Assay 3: intracellular cyclic AMP enzyme immunoassay; type: cell-based, rat; details: agonist 0 to 30 nM, 15 min, 0.5 mM IBMX
# Experimental: Assay 3: The production of cAMP by the CRF receptor agonist peptides CRF, urotensin 1, urocortin and sauvagine was measured as follows. This assay can be used analogously for any putative CRF receptor agonists including non-peptide agonists.
# Intracellular cyclic AMP was measured with a cAMP 2-site enzyme immunoassay system (trade mark BIOTRAK, commercially available from Amersham Pharmacia Biotech, PO Box 164, Rainham, Essex RM13 8JZ, United Kingdom, Amersham catalogue number RPN225), based upon the use of a sensitive and highly specific capture antibody for cyclic AMP:
# Cerebellar granule neurones were seeded in polylysine-coated […] plates, 3.5×10^5 cells per 48-well, in Basal medium Eagle's containing 10% fetal calf serum, 25 mM KCl, and antibiotics. At 8-9 days in vitro, granule neurone cultures were shifted to serum-free plating medium (0.4 ml) with 0.5 mM IBMX (to inhibit the breakdown of cyclic AMP) for 15 min (37° C.). Wells then received 0.1 ml of test peptide (5× final concentration). Generally 1 μM is the preferable final concentration for a putative CRF agonist under test, though different (e.g. lower) concentrations can be used as shown for the peptide agonists in FIG. 3. Incubation was continued for 15 min. Test medium was removed and the plate placed on dry ice, and stored at −140° C. Cyclic AMP analysis was performed the following day.
# Cells were then lysed with the reagent provided with the BIOTRAK kit. Intracellular content of cyclic AMP in the lysates was assayed following the manufacturer's instructions. A standard curve was constructed using the cyclic AMP calibration provided, with the quantity of bound cyclic AMP being inversely proportional to the amount of second (chromogenic) antibody bound to the reaction wells. The colour product was read with an ELISA plate reader, and was a function of the amount of cyclic AMP in the unknown sample.
# [4] = tested on: primary cerebellar granule neurones; test: Assay 2: effect of CP154,526 on agonist protection against LY294002 neurotoxicity; type: cell-based, rat; details: LY 294002 75 μM; for effect of CP 154,526 on neuroprotective effect of CRF receptor agonist (FIGS. 2B-D): urocortin, urotensin 1 or sauvagine 10 nM
# Experimental: Assay 2: This assay measures the effects of CP154,526, a selective CRF receptor-1 antagonist, on the protective effects of a putative CRF receptor agonist against neurotoxicity induced by LY294002 in primary cerebellar granule neurones. The assay is identical to Assay 1 except that after shifting the granule neurone cultures to the medium, the cultures were incubated with CP154,526 at concentrations varying from 3 nM to 1000 nM for 30 minutes prior to simultaneous addition of the putative CRF receptor agonist (10 nM) and LY 294002 (75 μM). 48 hours later neuronal survival was measured as in Assay 1.
# The columns from left to right represent: (1) control: cells cultured with CRF (10 nM) and LY 294002 (75 μM); (2 to 7) cells cultured with CRF (10 nM), LY 294002 (75 μM) and CP 154,526 at concentrations of 3 nM, 10 nM, 30 nM, 100 nM, 300 nM and 1000 nM respectively; and (8) cells cultured without agonist (CRF) but with LY 294002 (75 μM).
# [5] = target: CRF receptor-1 (Type 1 CRF receptor) on primary rat neurones (rat, UniProt P35353); test: cell-based or functional assay
# [6] = agonist 0.3 nM with LY 294002 75 μM
# [7] = agonist 1 nM with LY 294002 75 μM
# [8] = agonist 3 nM with LY 294002 75 μM
# [9] = agonist 10 nM with LY 294002 75 μM
# [10] = agonist 30 nM with LY 294002 75 μM
# [11] = agonist 100 nM with LY 294002 75 μM
# [12] = agonist 300 nM with LY 294002 75 μM
molecule,measurement,setting,value
MLGIIAGKNSG [reverse β-amyloid sequence (35-25)],neurotoxicity of peptide,"[1]; 20 μM, results not shown",not to be neurotoxic
"DDPPLSIDLTFHLLRTLLELARTQSQRERAEQNRIIFDSV [Urocortin, Urocortin (rat, Sigma Cat. no. U-6631), CRF receptor agonist peptide]",Mean survival %,[2]; [6],50.67%
same,Mean survival %,[2]; [7],61.33%
same,Mean survival %,[2]; [8],69.33%
same,Mean survival %,[2]; [9],77.33%
same,Mean survival %,[2]; [10],80.67%
same,Mean survival %,[2]; [11],75%
same,Mean survival %,[2]; [12],84%
same,cAMP synthesis induced by agonist (FIG. 3),[3],cAMP production increased with agonist concentration
"GSNKGAIIGLM [Aβ, Gly-Ser-Asn-Lys-Gly-Ala-Ile-Ile-Gly-Leu-Met]",neuronal death,[1]; after 2-3 days,cell death was visible
same,neuronal death,[1]; after 1 day of exposure,no visible neuronal death
CC[C@H](C)[C@H](NC(=O)[C@@H](NC(=O)[C@H](CC(=O)O)NC(=O)[C@H](CC(C)C)NC(=O)[C@H](CC(C)C)NC(=O)[C@H](CC(C)C)NC(=O)[C@H](CCCNC(=N)N)NC(=O)[C@H](CC(N)=O)NC(=O)[C@H](CC(N)=O)NC(=O)[C@H](C)NC(=O)[C@H](C)NC(=O)[C@H](CCC(N)=O)NC(=O)[C@H](CCC(N)=O)NC(=O)[C@H](CCCCN)NC(=O)[C@H](CCC(=O)O)NC(=O)[C@H](CCCCN)NC(=O)[C@H](CCC(=O)O)NC(=O)[C@H](CCC(N)=O)NC(=O)[C@H](CCCCN)NC(=O)[C@H](CCC(=O)O)NC(=O)[C@@H](NC(=O)[C@H](CCC(=O)O)NC(=O)[C@@H](NC(=O)[C@H](CCSC)NC(=O)[C@H](CCCCN)NC(=O)[C@H](CCCNC(=N)N)NC(=O)[C@H](CC(C)C)NC(=O)[C@H](CC(C)C)NC(=O)[C@H](CCC(=O)O)NC(=O)[C@H](CC(C)C)NC(=O)[C@H](CO)NC(=O)[C@H](CC(C)C)NC(=O)[C@H](CC(=O)O)NC(=O)[C@@H](NC(=O)[C@H](CO)NC(=O)[C@@H](NC(=O)[C@@H]1CCCN1C(=O)[C@@H]1CCCN1C(=O)CNC(=O)[C@@H]1CCC(=O)N1)[C@@H](C)CC)[C@@H](C)CC)[C@@H](C)CC)[C@@H](C)CC)[C@@H](C)O)C(N)=O [Sauvagine],Mean survival %,[2]; [6],49.33%
same,Mean survival %,[2]; [7],66.5%
same,Mean survival %,[2]; [8],76.33%
same,Mean survival %,[2]; [9],80.67%
same,Mean survival %,[2]; [10],78.67%
same,Mean survival %,[2]; [11],77.33%
same,Mean survival %,[2]; [12],78.33%
same,cAMP synthesis induced by agonist (FIG. 3),[3],cAMP production increased with agonist concentration
"CCCCN(CC)c1nc(C)nc2c1c(C)cn2-c1c(C)cc(C)cc1C [CP 154,526]","effect of CP-154,526 on CRF's neuroprotection (FIG. 8)","[1]; CP-154,526 1 μM with CRF (30 nM) and Aβ(25-35) 10 μM, 3 days",cancels all of CRF's neuroprotection
same,"effect of CP 154,526 on neuroprotective effect of CRF receptor agonist (FIGS. 2B-D)","[4]; CP 154,526 300 nM",partial reductions in neuroprotection
same,"effect of CP 154,526 on neuroprotective effect of CRF receptor agonist (FIGS. 2B-D)","[4]; CP 154,526 1000 nM",remove most or all of the neuroprotective effect
same,"effect of CP 154,526 on neuroprotective effect of CRF (FIG. 2A)","[4]; CP 154,526 as low as 300 nM, CRF 10 nM",remove almost completely the neuroprotective effect of 10 nM CRF
B1,EC50 of neuroprotection of cerebellar granule neurones against LY 294002 (Assay 1),[5],~10 nM
B2,potency of neuroprotection of cerebellar granule neurones against LY 294002 (Assay 1),[5],< 1000 nM
B3,potency of neuroprotection of cerebellar granule neurones against LY 294002 (Assay 1),[5],< 1000 nM

# — patent publication US20080113908A1, “Use of CRF receptor agonists for the treatment or Prophylaxis of diseases, for example Neurodegenerative diseases” (SmithKline Beecham plc, priority 2000, published 2008)
